Our source for the IC50 values is patent US7067549B2, “Pyrrolidone carboxamides” (Actelion Pharmaceuticals AG, priority 2001, dated 2006).

Molecules are shown by their SMILES.

The target of the test is T1, mouse NPY-Y5 receptors (mNPY-Y5) (Mus musculus, UniProt O70342).
T1 construct: The full-length cDNA which contains the mouse NPY-Y5 (mNPY-Y5) receptor coding was amplified from mouse brain cDNA; expressed in transfected cells
T1 sequence (O70342 1-466): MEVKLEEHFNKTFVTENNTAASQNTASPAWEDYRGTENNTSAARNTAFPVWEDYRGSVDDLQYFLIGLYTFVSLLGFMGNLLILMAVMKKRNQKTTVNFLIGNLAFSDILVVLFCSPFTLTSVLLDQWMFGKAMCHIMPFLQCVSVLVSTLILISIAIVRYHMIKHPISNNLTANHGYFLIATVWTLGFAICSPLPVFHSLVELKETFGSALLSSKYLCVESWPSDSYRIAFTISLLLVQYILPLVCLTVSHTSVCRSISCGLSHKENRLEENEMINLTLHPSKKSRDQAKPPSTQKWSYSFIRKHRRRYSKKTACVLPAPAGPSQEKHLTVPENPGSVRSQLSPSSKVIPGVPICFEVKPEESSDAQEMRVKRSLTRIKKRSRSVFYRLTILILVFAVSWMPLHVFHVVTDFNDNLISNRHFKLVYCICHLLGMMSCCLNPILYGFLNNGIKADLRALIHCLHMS
Put plainly: Radioligand competition binding (125I-PYY) on membranes of HEK293 cells expressing recombinant mouse NPY-Y5 receptor. As to conditions: displacement of 100 pM 125I-labeled PYY, 1 h at 22° C., read-out: NPY5 IC50. The text has this:
The full-length cDNA which contains the mouse NPY-Y5 (mNPY-Y5) receptor coding was amplified from mouse brain cDNA using specific primers, which were custom-made on the basis of published sequences, and employing Pfu DNA polymerase (Stratagene). The amplification product was subcloned into a mammalian expression vector pcDNA3 using EcoRI and XhoI restriction sites. Positive clones were sequenced; one clone, which contained the published sequence, was selected for preparing stable cell clones.
Human embryonic kidney 293 (HEK293) cells were transfected with 10 μg of mNPY5 DNA using Lipofectamine reagent (Gibco BRL) in accordance with the manufacturer's instructions. Two days after the transfection, the geneticin selection (1 mg/ml) was initiated and several stable clones were isolated. One of the clones was used for further pharmacological characterization.
Human embryonic kidney cells (HEK293) which express recombinant mouse NPY-Y5 receptors (mNPY-Y5) were disrupted by being frozen/thawed three times in hypotonic Tris buffer (5 mM, pH 7.4, 1 mM MgCl2), after which they were homogenized and centrifuged at 72 000 G for 15 minutes. The precipitate was washed twice with Tris buffer (pH 7.4) containing 25 mM MgCl2, 250 mM sucrose, 0.1 mM phenylmethylsulfonyl fluoride and 0.1 mM 1,10-phenanthroline, then resuspended in the same buffer and stored in aliquots at −80° C. The protein was determined by the Lowry method using bovine serum albumin (BSA) as the standard.
The competition binding analysis was carried out in 250 μl of 25 mM Hepes buffer (pH 7.4, 2.5 mM CaCl2, 1 mM MgCl2, 1% bovine serum albumin and 0.01% sodium azide) which 5 μg of protein, 100 pM ^125I-labeled peptide YY (PYY) and 10 μl of a DMSO solution containing increasing quantities of DMSO solution containing unlabeled test compound. After a one-hour incubation at 22° C., the bound ligand was separated from the unbound ligand by means of filtration through a glass fiber filter. Nonspecific binding was determined in the presence of 1 μM unlabeled PYY. Specific binding is defined as the difference between total binding and nonspecific binding. An IC50 value is defined as the concentration of the antagonist which displaces 50% of the ^125I-labeled […]. This concentration is determined by linear regression analysis following logit/log transformation of the binding values.
Take `CCOC(=O)CN(c1ccccc1)c1ccc(NC(=O)C2CC(=O)N(c3cc(C)ccc3C)C2)cc1` (racemic) [rac. Ethyl [(4-{[1-(2,5-dimethylphenyl)-5-oxopyrrolidine-3-carbonyl]amino}phenyl)phenylamino]acetate]: the IC50 worked out at 13 nM.

As to `CCOC(=O)CN(c1ccccc1)c1ccc(NC(=O)C2CC(=O)N(c3cc(OC)ccc3C)C2)cc1` (racemic) [rac. Ethyl [(4-{[1-(5-methoxy-2-methylphenyl)-5-oxopyrrolidine-3-carbonyl]amino}phenyl)phenylamino]acetate], the half-maximal inhibitory concentration (IC50) was 46 nM.

On to `CCN(CC)c1ccc(NC(=O)C2CC(=O)N(c3cc(C)ccc3C)C2)cc1` (racemic) [rac. N-(4-Diethylaminophenyl)-1-(2,5-dimethylphenyl)-5-oxopyrrolidine-3-carboxamide], for which the 50% inhibitory concentration (IC50) is 9 nM.

Turning to `Cc1ccc(C)c(N2CC(C(=O)Nc3ccc(C(C)C)cc3)CC2=O)c1` (racemic) [rac. N-(4-Isopropylphenyl)-1-(2,5-dimethylphenyl)-5-oxopyrrolidine-3-carboxamide], the IC50 came to 45 nM.

For `Cc1ccc(C)c(N2CC(C(=O)Nc3ccc(Nc4ccccc4)cc3)CC2=O)c1` (racemic) [rac. N-(4-Phenylaminophenyl)-1-(2,5-dimethylphenyl)-5-oxopyrrolidine-3-carboxamide], the IC50 is 30 nM.

`CC(C)c1ccccc1N1CC(C(=O)Nc2ccc(Nc3ccccc3)cc2)CC1=O` (racemic) [rac. N-(4-Phenylaminophenyl)-1-(2-isopropylphenyl)-5-oxopyrrolidine-3-carboxamide]: the IC50 came out at 41 nM.

Take `CCn1c2ccccc2c2cc(NC(=O)C3CC(=O)N(Cc4ccc(OC)cc4OC)C3)ccc21` (racemic) [rac. N-(9-Ethyl-9H-carbazol-3-yl)-1-(2,4-dimethoxybenzyl)-5-oxopyrrolidine-3-carboxamide]: the half-inhibitory concentration (IC50) came out at 20 nM.

For the molecule `CCn1c2ccccc2c2cc(NC(=O)C3CC(=O)N(Cc4ccccc4Cl)C3)ccc21` (racemic) [rac. N-(9-Ethyl-9H-carbazol-3-yl)-1-(2-chlorobenzyl)-5-oxopyrrolidine-3-carboxamide], the IC50 was determined as 20 nM.

On to `CCn1c2ccccc2c2cc(NC(=O)C3CC(=O)N(CC(O)c4ccccc4)C3)ccc21` (racemic) [rac. N-(9-Ethyl-9H-carbazol-3-yl)-1-(2-hydroxy-2-phenylethyl)-5-oxopyrrolidine-3-carboxamide], for which the half-inhibitory concentration (IC50) was found to be 8 nM.

Turning to `CCn1c2ccccc2c2cc(NC(=O)C3CC(=O)N(c4ccccc4C(C)C)C3)ccc21` (racemic) [rac. N-(9-Ethyl-9H-carbazol-3-yl)-1-(2-isopropylphenyl)-5-oxopyrrolidine-3-carboxamide], the concentration for half-maximal inhibition (IC50) came to 10 nM.

As to `CCn1c2ccccc2c2cc(NC(=O)C3CC(=O)N(CCN4CCOCC4)C3)ccc21` (racemic) [rac. N-(9-Ethyl-9H-carbazol-3-yl)-1-(2-morpholin-4-ylethyl)-5-oxopyrrolidine-3-carboxamide], the IC50 was determined as 10 nM.

On to `CCn1c2ccccc2c2cc(NC(=O)C3CC(=O)N(c4cccc(F)c4)C3)ccc21` (racemic) [rac. N-(9-Ethyl-9H-carbazol-3-yl)-1-(3-fluorophenyl)-5-oxopyrrolidine-3-carboxamide], for which the half-inhibitory concentration (IC50) worked out at 30 nM.

In the case of `CCn1c2ccccc2c2cc(NC(=O)C3CC(=O)N(c4cccc(OC)c4)C3)ccc21` (racemic) [rac. N-(9-Ethyl-9H-carbazol-3-yl)-1-(3-methoxyphenyl)-5-oxopyrrolidine-3-carboxamide], the IC50 amounted to 20 nM.

Take `CCn1c2ccccc2c2cc(NC(=O)C3CC(=O)N(Cc4ccc(Cl)cc4)C3)ccc21` (racemic) [rac. N-(9-Ethyl-9H-carbazol-3-yl)-1-(4-chlorobenzyl)-5-oxopyrrolidine-3-carboxamide]: the concentration for half-maximal inhibition (IC50) stood at 10 nM.

Regarding `CCn1c2ccccc2c2cc(NC(=O)C3CC(=O)N(c4ccc(C(C)C)cc4)C3)ccc21` (racemic) [rac. N-(9-Ethyl-9H-carbazol-3-yl)-1-(4-isopropylphenyl)-5-oxopyrrolidine-3-carboxamide], the IC50 came out at 30 nM.

On to `CCn1c2ccccc2c2cc(NC(=O)C3CC(=O)N(c4cc(OC)ccc4C)C3)ccc21` (racemic) [rac. N-(9-Ethyl-9H-carbazol-3-yl)-1-(5-methoxy-2-methylphenyl)-5-oxopyrrolidine-3-carboxamide], for which the IC50 came out at 10 nM.

In the case of `CCn1c2ccccc2c2cc(NC(=O)C3CC(=O)N(Cc4ccccc4)C3)ccc21` (racemic) [rac. N-(9-Ethyl-9H-carbazol-3-yl)-1-benzyl-5-oxopyrrolidine-3-carboxamide], the IC50 turned out to be 32 nM.

Take `CCn1c2ccccc2c2cc(NC(=O)C3CC(=O)N(C4CCCCCC4)C3)ccc21` (racemic) [rac. N-(9-Ethyl-9H-carbazol-3-yl)-1-cycloheptyl-5-oxopyrrolidine-3-carboxamide]: the IC50 was determined as 15 nM.

Regarding `CCn1c2ccccc2c2cc(NC(=O)C3CC(=O)N(Cc4ccco4)C3)ccc21` (racemic) [rac. N-(9-Ethyl-9H-carbazol-3-yl)-1-furan-2-ylmethyl-5-oxopyrrolidine-3-carboxamide], the half-maximal inhibitory concentration (IC50) amounted to 10 nM.

For the molecule `CCn1c2ccccc2c2cc(NC(=O)C3CC(=O)N(C4Cc5ccccc5C4)C3)ccc21` (racemic) [rac. N-(9-Ethyl-9H-carbazol-3-yl)-1-indan-2-yl-5-oxopyrrolidine-3-carboxamide], the IC50 amounted to 32 nM.

`CCn1c2ccccc2c2cc(NC(=O)C3CC(=O)N(CCc4ccccn4)C3)ccc21` (racemic) [rac. N-(9-Ethyl-9H-carbazol-3-yl)-5-oxo-1-(2-pyridin-2-ylethyl)pyrrolidine-3-carboxamide]: the concentration for half-maximal inhibition (IC50) stood at 3 nM.

On to `CCn1c2ccccc2c2cc(NC(=O)C3CC(=O)N(CCc4cccs4)C3)ccc21` (racemic) [rac. N-(9-Ethyl-9H-carbazol-3-yl)-5-oxo-1-(2-thiophen-2-ylethyl)pyrrolidine-3-carboxamide], for which the IC50 is 10 nM.

Turning to `CCn1c2ccccc2c2cc(NC(=O)C3CC(=O)N(c4ccc(C)cc4)C3)ccc21` (racemic) [rac. N-(9-Ethyl-9H-carbazol-3-yl)-5-oxo-1-p-tolylpyrrolidine-3-carboxamide], the IC50 is 30 nM.

For the molecule `CCn1c2ccccc2c2cc(NC(=O)C3CC(=O)N(CCc4ccccc4)C3)ccc21` (racemic) [rac. N-(9-Ethyl-9H-carbazol-3-yl)-5-oxo-1-phenethylpyrrolidine-3-carboxamide], the IC50 is 12 nM.

As for `CCn1c2ccccc2c2cc(NC(=O)C3CC(=O)N(c4ccccc4)C3)ccc21` (racemic) [rac. N-(9-Ethyl-9H-carbazol-3-yl)-5-oxo-1-phenylpyrrolidine-3-carboxamide], the IC50 amounted to 21 nM.

For `CCn1c2ccccc2c2cc(NC(=O)C3CC(=O)N(Cc4cccs4)C3)ccc21` (racemic) [rac. N-(9-Ethyl-9H-carbazol-3-yl)-5-oxo-1-thiophen-2-ylmethylpyrrolidine-3-carboxamide], the IC50 stood at 10 nM.

`Cc1ccc(C)c(N2CC(C(=O)Nc3ccc(-c4ccccc4)cc3)CC2=O)c1` (racemic) [rac. N-(Biphenyl-4-yl)-1-(2,5-dimethylphenyl)-5-oxopyrrolidine-3-carboxamide]: the 50% inhibitory concentration (IC50) was 34 nM.

Take `Cc1ccc(C)c(N2CC(C(=O)Nc3ccc(Nc4nc(C)cc(C)n4)cc3)CC2=O)c1` (racemic) [rac. N-[4-(4,6-Dimethylpyrimidin-2-ylamino)phenyl]-1-(2,5-dimethylphenyl)-5-oxopyrrolidine-3-carboxamide]: the IC50 stood at 20 nM.

With `Cc1cc(C)nc(Nc2ccc(NC(=O)C3CC(=O)N(c4ccccc4C(C)C)C3)cc2)n1` (racemic) [rac. N-[4-(4,6-Dimethylpyrimidin-2-ylamino)phenyl]-1-(2-isopropylphenyl)-5-oxopyrrolidine-3-carboxamide], the IC50 was determined as 25 nM.

What is called IC50 is the midpoint of a concentration-inhibition curve.
